Results: patent US20260274856A1, “COVALENT CEREBLON LIGANDS” (C4 THERAPEUTICS, INC., priority 2023, published 2026)
Read-outs that look alike come from different tables or passages of the source.

Target: cellular cereblon (CRBN) (Homo sapiens, UniProt Q96SW2)
Experiment: NanoBRET Target Engagement Assay, competition with pomalidomide tracer in 293T.116 cells
Conditions: for NanoBRET TE 293T.116 CRBN 2 hours IP nM / NanoBRET TE 293T.116 CRBN 6 hours IP nM / NanoBRET TE 293T.116 CRBN 24 hours IP nM / IC50: 293T.116 cells
[1] = NanoBRET TE 293T.116 CRBN 2 hours IC50 nM, 2 hours incubation
[2] = NanoBRET TE 293T.116 CRBN 6 hours IC50 nM, 6 hours incubation
[3] = NanoBRET TE 293T.116 CRBN 24 hours IC50 nM, 24 hours incubation
[4] = read-out: NanoBRET TE 293T.116 CRBN 2 hours Emax
[5] = read-out: NanoBRET TE 293T.116 CRBN 6 hours Emax
[6] = read-out: NanoBRET TE 293T.116 CRBN 24 hours Emax

Row | SMILES | NanoBRET TE 293T.116 CRBN 2 hours IP nM (2 hours incubation) | NanoBRET TE 293T.116 CRBN 6 hours IP nM (6 hours incubation) | NanoBRET TE 293T.116 CRBN 24 hours IP nM (24 hours incubation) | IC50 [1] [nM] | IC50 [2] [nM] | IC50 [3] [nM] | Emax [4] [%] | Emax [5] [%] | Emax [6] [%]
1 | O=C1NC(=O)C2(Nc3ccc(S(=O)(=O)F)cc3)CC1C2 [Compound A-33, 4-((2,4-dioxo-3-azabicyclo[3.1.1]heptan-1-yl)amino)benzenesulfonyl fluoride] | ** (<10 μM and >1 μM is **) | ** (<10 μM and >1 μM is **) | ** (<10 μM and >1 μM is **) | 1000 to 10000 | 1000 to 10000 | 1000 to 10000 | < 50 | < 50 | < 50
2 | O=C1CCC(n2c(=O)oc3c(S(=O)(=O)F)cccc32)C(=O)N1 (stereo not drawn) [Compound A-29, 3-(2,6-dioxopiperidin-3-yl)-2-oxo-2,3-dihydrobenzo[d]oxazole-7-sulfonyl fluoride] |  | *** (<= 1 μM is ***) | ** (<10 μM and >1 μM is **) |  | < 1000 | 1000 to 10000 |  | < 50 | < 50
3 | O=C1CCN(c2ccc(OS(=O)(=O)F)cc2)C(=O)N1 [Compound A-15, 4-(2,4-dioxotetrahydropyrimidin-1(2H)-yl)phenyl sulfurofluoridate] | ** (<10 μM and >1 μM is **) | ** (<10 μM and >1 μM is **) | ** (<10 μM and >1 μM is **) | > 10000 | > 10000 | 1000 to 10000 | 50 to 80 | 50 to 80 | < 50
4 | COc1ccc(OC2CCC(=O)NC2=O)cc1S(=O)(=O)F (stereo not drawn) [Compound A-16, 5-[(2,6-dioxo-3-piperidyl)oxy]-2-methoxy-benzenesulfonyl fluoride] | *** (<= 1 μM is ***) | *** (<= 1 μM is ***) | *** (<= 1 μM is ***) | < 1000 | < 1000 | < 1000 | < 50 | < 50 | < 50
5 | O=C1CCC(Oc2ccc(S(=O)(=O)F)cn2)C(=O)N1 (stereo not drawn) [Compound A-9, 6-((2,6-dioxopiperidin-3-yl)oxy)pyridine-3-sulfonyl fluoride] |  | ** (<10 μM and >1 μM is **) | * (>=10 μM is *) |  | 1000 to 10000 | > 10000 |  | < 50 | 50 to 80
6 | Cc1ccc(OC2CCC(=O)NC2=O)cc1OS(=O)(=O)F (stereo not drawn) [Compound A-19, 5-((2,6-dioxopiperidin-3-yl)oxy)-2-methylphenyl sulfurofluoridate] | ** (<10 μM and >1 μM is **) | ** (<10 μM and >1 μM is **) | ** (<10 μM and >1 μM is **) | 1000 to 10000 | 1000 to 10000 | 1000 to 10000 | < 50 | < 50 | < 50
7 | O=C1CCC(Nc2ccc(C3CCNCC3)c(OS(=O)(=O)F)c2)C(=O)N1 (stereo not drawn) [Compound A-31, 5-((2,6-dioxopiperidin-3-yl)amino)-2-(piperidin-4-yl)phenyl sulfurofluoridate] | *** (<= 1 μM is ***) | *** (<= 1 μM is ***) | *** (<= 1 μM is ***) | < 1000 | < 1000 | < 1000 | < 50 | < 50 | < 50
8 | O=C1CCC(c2ccc(N3CCNCC3)c(OS(=O)(=O)F)c2)C(=O)N1 (stereo not drawn) [Compound A-36, 5-(2,6-dioxopiperidin-3-yl)-2-(piperazin-1-yl)phenyl sulfurofluoridate] | *** (<= 1 μM is ***) | *** (<= 1 μM is ***) | *** (<= 1 μM is ***) | < 1000 | < 1000 | < 1000 | < 50 | < 50 | < 50
9 | CN(c1cccc(S(=O)(=O)F)c1)C1CCC(=O)NC1=O (stereo not drawn) [Compound A-11, 3-((2,6-dioxopiperidin-3-yl)(methyl)amino)benzenesulfonyl fluoride] | *** (<= 1 μM is ***) | *** (<= 1 μM is ***) | *** (<= 1 μM is ***) | < 1000 | < 1000 | < 1000 | < 50 | < 50 | < 50
10 | O=C1CCC(Oc2ccc(C3CCNCC3)c(S(=O)(=O)F)c2)C(=O)N1 (stereo not drawn) [Compound A-38, 5-((2,6-dioxopiperidin-3-yl)oxy)-2-(piperidin-4-yl)benzenesulfonyl fluoride] | *** (<= 1 μM is ***) | *** (<= 1 μM is ***) | *** (<= 1 μM is ***) | < 1000 | < 1000 | < 1000 | < 50 | < 50 | < 50
11 | O=C1CCC(c2cccc(OS(=O)(=O)F)c2)C(=O)N1 (stereo not drawn) [Compound A-23, 3-(2,6-dioxopiperidin-3-yl)phenyl sulfurofluoridate] |  | ** (<10 μM and >1 μM is **) | ** (<10 μM and >1 μM is **) |  | 1000 to 10000 | 1000 to 10000 |  | < 50 | < 50
12 | Cc1cc(OC2CCC(=O)NC2=O)cc(OS(=O)(=O)F)c1 (stereo not drawn) [Compound A-20, 3-((2,6-dioxopiperidin-3-yl)oxy)-5-methylphenyl sulfurofluoridate] |  | *** (<= 1 μM is ***) | *** (<= 1 μM is ***) |  | < 1000 | 1000 to 10000 |  | < 50 | < 50
13 | O=C1CCN(c2ccc(N3CCNCC3)c(OS(=O)(=O)F)c2)C(=O)N1 [drawing 1166] |  |  | ** (<10 μM and >1 μM is **) |  |  | 1000 to 10000 |  |  | < 50
14 | O=C1CCN(c2ccc(S(=O)(=O)F)cc2)C(=O)N1 [Compound A-14, 4-(2,4-dioxotetrahydropyrimidin-1(2H)-yl)benzenesulfonyl fluoride] | ** (<10 μM and >1 μM is **) | ** (<10 μM and >1 μM is **) | ** (<10 μM and >1 μM is **) | 1000 to 10000 | 1000 to 10000 | > 10000 | < 50 | < 50 | 50 to 80
15 | CN(c1cccc(OS(=O)(=O)F)c1)C1CCC(=O)NC1=O (stereo not drawn) [Compound A-18, 3-((2,6-dioxopiperidin-3-yl)(methyl)amino)phenyl sulfurofluoridate] | ** (<10 μM and >1 μM is **) | * (>=10 μM is *) | ** (<10 μM and >1 μM is **) | 1000 to 10000 | 1000 to 10000 | 1000 to 10000 | < 50 | < 50 | < 50
16 | COc1ccc(OC2CCC(=O)NC2=O)cc1OS(=O)(=O)F (stereo not drawn) [Compound A-27, 5-((2,6-dioxopiperidin-3-yl)oxy)-2-methoxyphenyl sulfurofluoridate] | ** (<10 μM and >1 μM is **) | ** (<10 μM and >1 μM is **) | ** (<10 μM and >1 μM is **) | 1000 to 10000 | 1000 to 10000 | > 10000 | < 50 | < 50 | 50 to 80
17 | O=C1CCN(c2ccc(N3CCNCC3)c(OS(=O)(=O)F)c2)C(=O)N1 [Compound A-39, 5-(2,4-dioxotetrahydropyrimidin-1(2H)-yl)-2-(piperazin-1-yl)phenyl sulfurofluoridate] | * (>=10 μM is *) |  |  | > 10000 |  |  | 50 to 80 |  | 
